Each block holds one compound with its values, some of them ahead of it.
What was measured:
[1] = target: T1, UGT2B7 (Homo sapiens, UniProt P16662); test: Reaction phenotyping, rUGT2B7; settings: recombinant UGT2B7, pH 7.4
T1 sequence (P16662 24-529): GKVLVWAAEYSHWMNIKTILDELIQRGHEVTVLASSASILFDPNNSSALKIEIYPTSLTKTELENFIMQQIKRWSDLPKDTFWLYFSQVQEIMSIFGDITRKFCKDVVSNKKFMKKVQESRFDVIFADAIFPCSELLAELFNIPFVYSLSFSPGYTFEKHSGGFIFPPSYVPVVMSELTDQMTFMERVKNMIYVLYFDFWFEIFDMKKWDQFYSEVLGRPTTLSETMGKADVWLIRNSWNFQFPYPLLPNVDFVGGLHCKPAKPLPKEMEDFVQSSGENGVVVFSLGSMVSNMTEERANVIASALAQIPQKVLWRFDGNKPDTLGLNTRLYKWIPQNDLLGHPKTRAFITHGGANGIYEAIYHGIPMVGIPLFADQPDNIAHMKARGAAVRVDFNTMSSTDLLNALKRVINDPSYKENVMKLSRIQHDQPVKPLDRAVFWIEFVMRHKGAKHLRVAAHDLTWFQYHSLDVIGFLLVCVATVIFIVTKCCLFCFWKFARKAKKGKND

[2] = target: T2, UGT1A6 (Homo sapiens, UniProt P19224); test: Reaction phenotyping, rUGT1A6; settings: recombinant UGT1A6, pH 7.4
T2 sequence (P19224 27-532): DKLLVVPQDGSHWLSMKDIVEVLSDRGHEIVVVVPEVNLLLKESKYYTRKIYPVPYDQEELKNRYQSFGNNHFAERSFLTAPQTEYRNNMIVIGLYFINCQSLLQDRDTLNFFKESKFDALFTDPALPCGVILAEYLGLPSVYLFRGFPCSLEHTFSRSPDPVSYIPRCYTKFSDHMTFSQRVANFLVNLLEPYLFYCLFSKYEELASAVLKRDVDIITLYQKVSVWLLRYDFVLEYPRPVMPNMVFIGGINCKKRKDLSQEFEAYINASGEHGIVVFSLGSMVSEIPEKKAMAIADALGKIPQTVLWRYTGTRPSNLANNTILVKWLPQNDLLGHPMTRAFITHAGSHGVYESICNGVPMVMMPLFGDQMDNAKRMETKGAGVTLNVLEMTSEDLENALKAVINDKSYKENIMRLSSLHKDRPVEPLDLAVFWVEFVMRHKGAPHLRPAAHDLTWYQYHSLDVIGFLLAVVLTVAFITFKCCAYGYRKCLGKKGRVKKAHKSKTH

[3] = target: T3, UGT1A7 (Homo sapiens, UniProt Q9HAW7); test: Reaction phenotyping, rUGT1A7; settings: recombinant UGT1A7, pH 7.4
T3 sequence (Q9HAW7 26-530): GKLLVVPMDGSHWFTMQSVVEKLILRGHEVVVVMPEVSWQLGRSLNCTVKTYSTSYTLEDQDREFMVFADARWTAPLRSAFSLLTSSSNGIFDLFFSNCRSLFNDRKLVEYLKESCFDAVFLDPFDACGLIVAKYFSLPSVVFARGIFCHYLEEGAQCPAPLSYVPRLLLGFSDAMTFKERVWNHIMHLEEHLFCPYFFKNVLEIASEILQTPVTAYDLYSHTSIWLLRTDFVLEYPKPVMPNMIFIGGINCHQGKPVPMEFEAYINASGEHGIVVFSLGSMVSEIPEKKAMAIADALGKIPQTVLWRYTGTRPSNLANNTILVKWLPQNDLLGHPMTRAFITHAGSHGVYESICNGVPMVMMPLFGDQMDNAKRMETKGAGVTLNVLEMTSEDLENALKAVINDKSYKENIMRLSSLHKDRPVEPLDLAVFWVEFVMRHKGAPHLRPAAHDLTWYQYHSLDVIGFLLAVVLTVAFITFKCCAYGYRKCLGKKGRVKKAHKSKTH

[4] = Reaction phenotyping, HLM with UDPGA; settings: human, human liver microsomes, pH 7.4
[5] = target: T4, UGT1A8 (Homo sapiens, UniProt Q9HAW9); test: Reaction phenotyping, rUGT1A8; settings: recombinant UGT1A8, pH 7.4
T4 sequence (Q9HAW9 26-530): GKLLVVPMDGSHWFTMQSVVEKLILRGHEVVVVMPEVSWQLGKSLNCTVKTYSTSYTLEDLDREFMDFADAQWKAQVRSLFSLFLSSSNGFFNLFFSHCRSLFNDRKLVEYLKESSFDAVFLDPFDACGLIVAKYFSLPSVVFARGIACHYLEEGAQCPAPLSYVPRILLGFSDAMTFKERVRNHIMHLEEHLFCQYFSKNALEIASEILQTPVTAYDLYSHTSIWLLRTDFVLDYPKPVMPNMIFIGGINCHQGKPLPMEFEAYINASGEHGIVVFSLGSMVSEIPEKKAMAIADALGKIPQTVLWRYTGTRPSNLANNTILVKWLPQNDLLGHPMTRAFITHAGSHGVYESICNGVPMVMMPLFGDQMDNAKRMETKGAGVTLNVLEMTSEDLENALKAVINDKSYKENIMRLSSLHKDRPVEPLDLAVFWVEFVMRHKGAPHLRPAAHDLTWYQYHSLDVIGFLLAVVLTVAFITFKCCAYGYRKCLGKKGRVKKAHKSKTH

[6] = target: T5, UGT1A4 (Homo sapiens, UniProt P22310); test: Reaction phenotyping, rUGT1A4; settings: recombinant UGT1A4, pH 7.4
T5 sequence (P22310 29-534): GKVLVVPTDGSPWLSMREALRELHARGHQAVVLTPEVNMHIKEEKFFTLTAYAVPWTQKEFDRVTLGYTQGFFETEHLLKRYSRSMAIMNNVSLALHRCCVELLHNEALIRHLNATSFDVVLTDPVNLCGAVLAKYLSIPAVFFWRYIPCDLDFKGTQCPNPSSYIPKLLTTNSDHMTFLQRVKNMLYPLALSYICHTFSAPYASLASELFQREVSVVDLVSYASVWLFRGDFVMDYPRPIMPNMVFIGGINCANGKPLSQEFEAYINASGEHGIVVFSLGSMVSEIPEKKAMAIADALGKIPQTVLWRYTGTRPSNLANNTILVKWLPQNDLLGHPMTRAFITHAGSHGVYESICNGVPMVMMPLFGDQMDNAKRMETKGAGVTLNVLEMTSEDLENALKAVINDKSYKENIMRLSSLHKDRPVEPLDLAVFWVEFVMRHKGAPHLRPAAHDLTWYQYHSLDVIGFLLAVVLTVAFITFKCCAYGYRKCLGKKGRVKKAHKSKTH

[7] = target: rCYP1B1 (Homo sapiens, UniProt Q16678); settings: recombinant enzyme, 1 h
[8] = target: T6, CYP1A1 (Homo sapiens, UniProt P04798); test: Reaction phenotyping, rCYP1A1; settings: recombinant CYP1A1, pH 7.4
T6 sequence (P04798 1-512): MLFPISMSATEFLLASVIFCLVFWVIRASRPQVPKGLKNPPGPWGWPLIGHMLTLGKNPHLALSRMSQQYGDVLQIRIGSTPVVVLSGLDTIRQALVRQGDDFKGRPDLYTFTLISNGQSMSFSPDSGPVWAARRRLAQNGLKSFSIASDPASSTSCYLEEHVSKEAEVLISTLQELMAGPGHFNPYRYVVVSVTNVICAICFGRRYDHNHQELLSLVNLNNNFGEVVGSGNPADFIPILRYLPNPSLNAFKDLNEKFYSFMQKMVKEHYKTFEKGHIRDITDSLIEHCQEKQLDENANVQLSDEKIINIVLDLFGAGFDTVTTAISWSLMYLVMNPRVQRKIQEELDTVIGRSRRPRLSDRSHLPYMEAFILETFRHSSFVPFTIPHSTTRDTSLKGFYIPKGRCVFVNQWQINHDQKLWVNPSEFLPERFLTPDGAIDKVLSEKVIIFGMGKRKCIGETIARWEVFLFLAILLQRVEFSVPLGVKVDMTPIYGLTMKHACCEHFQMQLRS

[9] = target: T7, CYP1A2 (Homo sapiens, UniProt P05177); test: Reaction phenotyping, rCYP1A2; settings: recombinant CYP1A2, pH 7.4
T7 sequence (P05177 1-516): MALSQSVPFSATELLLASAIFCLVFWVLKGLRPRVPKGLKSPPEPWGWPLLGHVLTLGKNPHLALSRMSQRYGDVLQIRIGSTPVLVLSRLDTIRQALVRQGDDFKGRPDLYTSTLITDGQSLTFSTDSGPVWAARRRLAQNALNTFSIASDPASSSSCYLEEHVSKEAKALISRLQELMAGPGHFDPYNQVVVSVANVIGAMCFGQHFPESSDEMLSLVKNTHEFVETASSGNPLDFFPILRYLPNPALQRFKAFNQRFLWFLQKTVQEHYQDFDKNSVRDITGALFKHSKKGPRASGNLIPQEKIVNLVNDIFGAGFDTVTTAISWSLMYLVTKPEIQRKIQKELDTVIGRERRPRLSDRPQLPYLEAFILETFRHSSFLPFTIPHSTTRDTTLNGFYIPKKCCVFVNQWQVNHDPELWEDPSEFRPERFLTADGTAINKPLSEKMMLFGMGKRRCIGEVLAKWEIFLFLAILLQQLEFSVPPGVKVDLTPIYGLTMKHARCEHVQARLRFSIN

[10] = target: T8, UGT1A9 (Homo sapiens, UniProt O60656); test: Reaction phenotyping, rUGT1A9; settings: recombinant UGT1A9, pH 7.4
T8 sequence (O60656 26-530): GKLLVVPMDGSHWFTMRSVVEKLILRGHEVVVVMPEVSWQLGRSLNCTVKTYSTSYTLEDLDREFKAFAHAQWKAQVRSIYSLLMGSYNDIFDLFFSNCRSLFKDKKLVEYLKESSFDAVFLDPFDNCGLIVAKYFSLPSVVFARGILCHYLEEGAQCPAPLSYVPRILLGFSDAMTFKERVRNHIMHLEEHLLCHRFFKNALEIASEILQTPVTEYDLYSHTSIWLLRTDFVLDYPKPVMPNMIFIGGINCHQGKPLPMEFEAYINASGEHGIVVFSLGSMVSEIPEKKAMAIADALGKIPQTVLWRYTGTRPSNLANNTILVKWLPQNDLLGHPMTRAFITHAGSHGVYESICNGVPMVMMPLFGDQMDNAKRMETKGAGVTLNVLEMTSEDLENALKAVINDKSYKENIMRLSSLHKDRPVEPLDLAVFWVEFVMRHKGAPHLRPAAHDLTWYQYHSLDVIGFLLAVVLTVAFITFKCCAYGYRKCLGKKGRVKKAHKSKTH

rCYP1B1, sequence (Q16678 whole entry): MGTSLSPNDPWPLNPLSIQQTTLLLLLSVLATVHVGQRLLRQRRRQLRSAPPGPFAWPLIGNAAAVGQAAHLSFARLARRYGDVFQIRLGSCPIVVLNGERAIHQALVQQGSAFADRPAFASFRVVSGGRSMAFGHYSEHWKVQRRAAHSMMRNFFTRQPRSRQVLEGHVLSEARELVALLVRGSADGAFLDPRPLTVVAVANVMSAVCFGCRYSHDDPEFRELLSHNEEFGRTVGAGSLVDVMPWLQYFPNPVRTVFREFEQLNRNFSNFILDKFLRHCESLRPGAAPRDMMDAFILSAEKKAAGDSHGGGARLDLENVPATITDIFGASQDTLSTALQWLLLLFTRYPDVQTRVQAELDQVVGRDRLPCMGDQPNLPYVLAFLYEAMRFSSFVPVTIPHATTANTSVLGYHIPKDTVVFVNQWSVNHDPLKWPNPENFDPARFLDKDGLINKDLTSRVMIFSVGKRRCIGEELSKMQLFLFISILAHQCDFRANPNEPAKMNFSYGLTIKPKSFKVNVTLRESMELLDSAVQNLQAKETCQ

remaining at 1 h, 10 µM [1]: 74.4%
Structure (SMILES): Cc1cn([C@H]2C[C@H](N=[N+]=[N-])[C@@H](CO)O2)c(=O)[nH]c1=O [Zidovudine]

remaining at 1 h, 2 µM [2]: 5.26%
remaining at 1 h, 10 µM [3]: 70.9%
remaining at 1 h, 2 µM [4]: 0.82%
remaining at 1 h, 2 µM [5]: 49.9%
Structure (SMILES): Cc1cc(=O)oc2cc(O)ccc12 [4-methylumbelliferone]

remaining at 1 h, 0.5 µM [6]: 73.1%
Structure (SMILES): CN1CCN(CCCN2c3ccccc3Sc3ccc(C(F)(F)F)cc32)CC1 [Trifluoperazine]

Known Substrate (% Remaining at 60 min) [7]: 7-ethoxyresorufin (35.11) %
Structure (SMILES): CCOc1ccc2nc3ccc(=O)cc-3oc2c1 [7-ethoxyresorufin]

remaining at 1 h, 10 µM [8]: 41%
remaining at 1 h, 10 µM [9]: 65.8%
Structure (SMILES): CCOc1ccc(NC(C)=O)cc1 [Phenacetin]

remaining at 1 h, 0.2 µM [10]: 0%
Structure (SMILES): COc1c(C)c2c(c(O)c1C/C=C(\C)CCC(=O)O)C(=O)OC2 [Mycophenolic acid]

Source: PMC8706783 (Pharmaceutics, 2021)
